Experimental data as given in US20170079966A1, “INHIBITION OF TUMOR CELL INTERACTIONS WITH THE MICROENVIRONMENT RESULTING IN A REDUCTION IN TUMOR GROWTH AND DISEASE PROGRESSION” (Deciphera Pharmaceuticals, LLC, priority 2014, published 2017).

Columns and labels:
B16/F10 cells = assay: B16/F10 metastatic melanoma model; conditions: Compound 1 15 mg/kg
TIE2 = TIE2 (Homo sapiens, UniProt Q02763); assay: Phospho-TIE2 Western blot in TIE2 expressing CHO-K1 cells; format: cell-based; parameters: expressed in transfected cells; host or cells: CHO-K1 (ATCC CCL-61), transient transfection; conditions: CHO cells transiently expressing TIE2; 4 hours; read-out: IC50, inhibiting the constitutive phosphorylation of TIE2
Sequence of TIE2 (Q02763 23-1124, species assumed): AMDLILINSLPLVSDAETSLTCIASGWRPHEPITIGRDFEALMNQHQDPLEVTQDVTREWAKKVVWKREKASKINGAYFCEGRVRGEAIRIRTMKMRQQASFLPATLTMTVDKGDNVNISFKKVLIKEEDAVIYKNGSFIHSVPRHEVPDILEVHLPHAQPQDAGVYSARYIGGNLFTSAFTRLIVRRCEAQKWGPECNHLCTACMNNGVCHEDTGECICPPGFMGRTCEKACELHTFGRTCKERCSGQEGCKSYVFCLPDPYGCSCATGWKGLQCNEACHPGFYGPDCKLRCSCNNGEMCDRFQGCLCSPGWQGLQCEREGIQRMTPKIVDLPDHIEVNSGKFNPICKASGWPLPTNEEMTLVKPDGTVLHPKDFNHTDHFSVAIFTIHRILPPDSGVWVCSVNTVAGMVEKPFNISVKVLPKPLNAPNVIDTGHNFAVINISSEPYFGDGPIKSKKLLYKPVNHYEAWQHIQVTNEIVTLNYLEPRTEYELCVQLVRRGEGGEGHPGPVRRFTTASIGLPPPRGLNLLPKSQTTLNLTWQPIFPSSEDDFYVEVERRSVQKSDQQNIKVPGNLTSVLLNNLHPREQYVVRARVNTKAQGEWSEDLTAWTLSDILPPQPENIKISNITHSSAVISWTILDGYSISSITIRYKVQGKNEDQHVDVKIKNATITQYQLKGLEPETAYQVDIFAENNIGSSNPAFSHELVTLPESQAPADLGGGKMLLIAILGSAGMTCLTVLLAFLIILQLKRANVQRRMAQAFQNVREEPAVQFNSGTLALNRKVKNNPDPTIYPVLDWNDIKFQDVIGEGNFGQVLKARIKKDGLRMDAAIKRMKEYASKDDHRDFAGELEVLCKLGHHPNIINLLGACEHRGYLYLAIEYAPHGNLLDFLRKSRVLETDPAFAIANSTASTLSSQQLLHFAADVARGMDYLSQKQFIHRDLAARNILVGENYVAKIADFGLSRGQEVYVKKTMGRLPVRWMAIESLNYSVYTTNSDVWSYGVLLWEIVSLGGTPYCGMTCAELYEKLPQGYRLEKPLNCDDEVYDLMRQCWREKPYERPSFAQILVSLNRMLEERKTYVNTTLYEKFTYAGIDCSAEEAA
Protocol: Briefly, cells were grown in F12K medium supplemented with 10% characterized fetal bovine serum (Invitrogen, Carlsbad, Calif.), 100 units/mL penicillin G, 100 μg/ml streptomycin, and 0.29 mg/mL L-glutamine (Invitrogen, Carlsbad, Calif.) at 37 degrees Celsius, 5% CO2, and 95% humidity.
CHO K1 cells (1×10^5 cells/well) were added to a 24-well tissue-culture treated plate in 1 mL of RPMI1640 medium supplemented with 10% characterized fetal bovine serum and 1× non-essential amino acids (Invitrogen, Carlsbad, Calif.). Cells were then incubated overnight at 37 degrees Celsius, 5% CO2, and 95% humidity. Medium was aspirated, and 0.5 mL of medium was added to each well. Transfection-grade plasmid DNA (TIE2 gene Gateway cloned into pcDNA3.2™/V5-DEST expression vector, Invitrogen, Carlsbad, Calif.) was diluted to 5 μg/mL in room temperature Opti-MEM® I Medium without serum (Invitrogen, Carlsbad, Calif.). Two μL of Lipofectamine LTX Reagent (Invitrogen, Carlsbad, Calif.) was added per 0.5 μg of plasmid DNA. […] Fluorescence was detected using a Storm 840 phosphorimager (GE Healthcare, Piscataway, N.J.) in fluorescence mode. […] The 160 kDa phospho-TIE2 and total TIE2 bands were quantified using ImageQuant software (GE Healthcare, Piscataway, N.J.), and data was plotted using Prism software (GraphPad Software, San Diego, Calif.).

PyMT mammary tumor = assay: PyMT syngeneic breast cancer model; format: in vivo, mice
Protocol: Female FVB/NJ mice were implanted in the 4th mammary fat pad with one million cells that had been dissociated from tumor fragments from MMTV-PyMT donor mice. […] Mice (n=10/group) were dosed for three weeks, then, primary tumor and lungs were collected and fixed. Lung sections were stained with H&E at Premier Laboratory. Lung metastases (≧10 cells) were counted manually via microscopy. Data were analyzed via one-way analysis of variance (ANOVA), with post-hoc analysis by the method of Holm-Sidak. For analysis of TIE2-positive macrophages, tumor sections were stained with TIE2 and CD31 antibodies at Premier Laboratory. The density of TIE2-positive cells at the stroma/tumor boundary in each tumor was scored using 0=no staining, 1=low, 2=medium, and 3=high.

O=C(Nc1cc(Oc2cc(F)c(NC(=O)C3(C(=O)Nc4ccc(F)cc4)CC3)cc2F)ccn1)C1CC1 [Compound 1, N-(4-(2-(cyclopropanecarboxamido)pyridin-4-yloxy)-2,5-difluorophenyl)-N′-(4-fluorophenyl)cyclopropane-1,1-dicarboxamide]
T-C (B16/F10 cells): > 4.3 days | Treated animals with metastases on Day 21 (ex vivo BLI) (B16/F10 cells; 2/12 animals): 16.6% | Inhibition of the development of pulmonary metastases (B16/F10 cells; Day 21): 72% | % T/C, tumor growth on Day 21 (B16/F10 cells; treatment from Day 0): 30% | IC50 (TIE2): 2.4 nM | Tumor growth inhibition (TGI) (PyMT mammary tumor; after dosing for three weeks, paclitaxel 10 mg/kg i.v. every 5 days, Compound 1 15 mg/kg twice daily): 69% | Reduction of TIE2 score (stromal density of TIE2+ cells) (PyMT mammary tumor; same dosing): 50% | Reduction of lung metastases compared to controls (PyMT mammary tumor; same dosing): 74%
